# Assay results from US20220168427A1 (Ranok Therapeutics (Hangzhou) Co. Ltd., priority 2019, published 2022).
# Key:
# [1] = molecular target: T1, BRD4 (BD1+BD2) (Homo sapiens, UniProt O60885); conditions: read-out: BRD4 Binding Potency
# T1 construct: 1.8 μg/ml recombinant BRD4 (BD1+BD2 domains) protein
# [2] = molecular target: HSP90α (Homo sapiens, UniProt P07900); test: HSP90α Binding Fluorescent Polarization (FP) Assay; conditions: competition with FITC-geldanamycin; read-out: HSP90 Binding Potency
# Summary of the method: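 Competitive FP assay in which compound displaces FITC-geldanamycin from recombinant HSP90α (28 μg/ml before addition) in BSA-containing buffer. Compounds in 3-fold series from 40 μM to 2.0 nM (dilution-plate concentrations), tested in duplicate. Readings after 30, 60 and 120 min at 25 °C; background-subtracted mP fitted to four-parameter log[inhibitor]-response curve.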
# [3] = test system: MV4-11 cells; test: MV4-11 Cell Cytotoxicity Assay; format: cell-based, human; conditions: human, MV4-11 cells, CCK-8
# From the text: % Inhibition=100−(D−B)/(S−B)*100%.
# S: The absorbance of the maximum (cells with DMSO)
# B: The absorbance of the minimum (medium with DMSO)
Compound,IC50 [1],IC50 [2],IC50 at 72 h [3]
"Cc1sc2c(c1C)C(c1ccc(Cl)cc1)=N[C@@H](CC(=O)NCc1ccc(CN3CCC(Cc4ccc(-n5c(O)nnc5-c5cc(C(C)C)c(O)cc5O)cc4)CC3)cc1)c1nnc(C)n1-2 [Compound 89, (S)-2-(4-(4-chlorophenyl)-2,3,9-trimethyl-6H-thieno[3,2-f][1,2,4]triazolo[4,3-a][1,4]diazepin-6-yl)-N-(4-((4-(4-(3-(2,4-dihydroxy-5-isopropylphenyl)-5-hydroxy-4H-1,2,4-triazol-4-yl)benzyl)piperidin-1-yl)methyl)benzyl)acetamide, trifluoroacetic acid]",100 to 1000 nM,100 to 1000 nM,< 100 nM
"CCNC(=O)c1nnc(-c2cc(CC)c(O)cc2O)n1-c1ccc(CC2CCN(CC3CCN(C(=O)C[C@@H]4N=C(c5ccc(Cl)cc5)c5c(sc(C)c5C)-n5c(C)nnc54)CC3)CC2)cc1 [Compound 87, (S)-4-(4-((1-((1-(2-(4-(4-chlorophenyl)-2,3,9-trimethyl-6H-thieno[3,2-f][1,2,4]triazolo[4,3-a][1,4]diazepin-6-yl)acetyl)piperidin-4-yl)methyl)piperidin-4-yl)methyl)phenyl)-N-ethyl-5-(5-ethyl-2,4-dihydroxyphenyl)-1H-1,2,414-triazole-3-carboxamide, trifluoroacetic acid]",100 to 1000 nM,100 to 1000 nM,< 100 nM
"Cc1sc2c(c1C)C(c1ccc(Cl)cc1)=N[C@@H](CC(=O)NCCOCCOCCN[C@@H](C)C(=O)N[C@H](C(=O)N1CCC[C@H]1C(=O)Nc1snnc1-c1ccccc1)C1CCCCC1)c1nnc(C)n1-2 [Compound 128, (S)-1-((2S,5S)-17-((S)-4-(4-chlorophenyl)-2,3,9-trimethyl-6H-thieno[3,2-f][1,2,4]triazolo[4,3-a][1,4]diazepin-6-yl)-2-cyclohexyl-5-methyl-4,16-dioxo-9,12-dioxa-3,6,15-triazaheptadecanoyl)-N-(4-phenyl-1,2,3-thiadiazol-5-yl)pyrrolidine-2-carboxamide]",> 1000 nM,> 1000 nM,> 1000 nM
"Cc1cc(-c2nnc(C(=O)NCCN3CCCCC3)n2-c2ccc(CN3CCN(CC4CCN(C(=O)C[C@@H]5N=C(c6ccc(Cl)cc6)c6c(sc(C)c6C)-n6c(C)nnc65)CC4)CC3)cc2)c(O)cc1O [Compound 124, (S)-4-(4-((4-((1-(2-(4-(4-chlorophenyl)-2,3,9-trimethyl-6H-thieno[3,2-f][1,2,4]triazolo[4,3-a][1,4]diazepin-6-yl)acetyl)piperidin-4-yl)methyl)piperazin-1-yl)methyl)phenyl)-5-(2,4-dihydroxy-5-methylphenyl)-N-(2-(piperidin-1-yl)ethyl)-4H-1,2,4-triazole-3-carboxamide, trifluoroacetic acid]",< 100 nM,100 to 1000 nM,< 100 nM
"Cc1sc2c(c1C)C(c1ccc(Cl)cc1)=N[C@@H](CCNCC1CCN(C(=O)C3CCN(Cc4ccc(-n5c(O)nnc5-c5cc(C(C)C)c(O)cc5O)cc4)CC3)CC1)c1nnc(C)n1-2 [Compound 64, (4-(((2-((6S)-4-(4-chlorophenyl)-2,3,9-trimethyl-6H-thieno[3,2-f][1,2,4]triazolo[4,3-a][1,4]diazepin-6-yl)ethyl)amino)methyl)piperidin-1-yl)(1-(4-(3-(2,4-dihydroxy-5-isopropylphenyl)-5-hydroxy-4H-1,2,4-triazol-4-yl)benzyl)piperidin-4-yl)methanone, trifluoroacetic acid]",100 to 1000 nM,100 to 1000 nM,100 to 1000 nM
COc1cccc(-c2cc(C(=O)Nc3ccc(-c4ccc(OC5CCN(C)CC5)cc4OCCN(C)CC[C@@H]4N=C(c5ccc(Cl)cc5)c5c(sc(C)c5C)-n5c(C)nnc54)cc3)ccc2OC)c1 [Compound 135],100 to 1000 nM,> 1000 nM,100 to 1000 nM
"Cc1sc2c(c1C)C(c1ccc(Cl)cc1)=N[C@@H](CC(=O)N(C)CCOc1ccc(CN(C)Cc3ccc(-n4c(C(=O)NCC(F)(F)F)nnc4-c4cc(C(C)C)c(O)cc4O)cc3)cc1)c1nnc(C)n1-2 [Compound 101, (S)-4-(4-(((4-(2-(2-(4-(4-chlorophenyl)-2,3,9-trimethyl-6H-thieno[3,2-f][1,2,4]triazolo[4,3-a][1,4]diazepin-6-yl)-N-methylacetamido)ethoxy)benzyl)(methyl)amino)methyl)phenyl)-5-(2,4-dihydroxy-5-isopropylphenyl)-N-(2,2,2-trifluoroethyl)-4H-1,2,4-triazole-3-carboxamide, formic acid]",> 1000 nM,> 1000 nM,< 100 nM
"Cc1sc2c(c1C)C(c1ccc(Cl)cc1)=N[C@@H](CC(=O)N1CCN(Cc3ccc(-n4c(O)nnc4-c4cc(C(C)C)c(O)cc4O)cc3)CC1)c1nnc(C)n1-2 [Compound 38, 2-((6S)-4-(4-chlorophenyl)-2,3,9-trimethyl-6H-thieno[3,2-f][1,2,4]triazolo[4,3-a][1,4]diazepin-6-yl)-1-(4-(4-(3-(2,4-dihydroxy-5-isopropylphenyl)-5-hydroxy-4H-1,2,4-triazol-4-yl)benzyl)piperazin-1-yl)ethanone, trifluoroacetic acid]",> 1000 nM,100 to 1000 nM,< 100 nM
"Cc1cc(-c2nnc(C(=O)NCC(F)(F)F)n2-c2ccc(CN3CCN(CC4CCN(C(=O)C[C@@H]5N=C(c6ccc(Cl)cc6)c6c(sc(C)c6C)-n6c(C)nnc65)CC4)CC3)cc2)c(O)cc1O [Compound 15, 4-(4-((4-((1-(2-((6S)-4-(4-chlorophenyl)-2,3,9-trimethyl-6H-thieno[3,2-f][1,2,4]triazolo[4,3-a][1,4]diazepin-6-yl)acetyl)piperidin-4-yl)methyl)piperazin-1-yl)methyl)phenyl)-5-(2,4-dihydroxy-5-methylphenyl)-N-(2,2,2-trifluoroethyl)-4H-1,2,4-triazole-3-carboxamide, trifluoroacetic acid]",> 1000 nM,100 to 1000 nM,< 100 nM
"Cc1sc2c(c1C)C(c1ccc(Cl)cc1)=N[C@@H](CCN(C)CCOc1ccc(-n3c(O)nnc3-c3cc(C(C)C)c(O)cc3O)cc1)c1nnc(C)n1-2 [Compound 65, (S)-4-(4-(4-(2-((2-(4-(4-chlorophenyl)-2,3,9-trimethyl-6H-thieno[3,2-f][1,2,4]triazolo[4,3-a][1,4]diazepin-6-yl)ethyl)(methyl)amino)ethoxy)phenyl)-5-hydroxy-4H-1,2,4-triazol-3-yl)-6-isopropylbenzene-1,3-diol]",> 1000 nM,100 to 1000 nM,100 to 1000 nM
"Cc1sc2c(c1C)C(c1ccc(Cl)cc1)=N[C@@H](CC(=O)NCCOCCOc1ccc(-n3c(S)nnc3-c3cc(C(C)C)c(O)cc3O)cc1)c1nnc(C)n1-2 [Compound 33, (S)-2-(4-(4-chlorophenyl)-2,3,9-trimethyl-6H-thieno[3,2-f][1,2,4]triazolo[4,3-a][1,4]diazepin-6-yl)-N-(2-(2-(4-(3-(2,4-dihydroxy-5-isopropylphenyl)-5-mercapto-4H-1,2,4-triazol-4-yl)phenoxy)ethoxy)ethyl)acetamide]",100 to 1000 nM,100 to 1000 nM,100 to 1000 nM
"Cc1sc2c(c1C)C(c1ccc(Cl)cc1)=N[C@@H](CC(=O)NCCc1ccc(CN3CCC(Cc4ccc(-n5c(C(=O)NCC(F)(F)F)nnc5-c5cc(C(C)C)c(O)cc5O)cc4)CC3)cc1)c1nnc(C)n1-2 [Compound 95, (S)-4-(4-((1-(4-(2-(2-(4-(4-chlorophenyl)-2,3,9-trimethyl-6H-thieno[3,2-f][1,2,4]triazolo[4,3-a][1,4]diazepin-6-yl)acetamido)ethyl)benzyl)piperidin-4-yl)methyl)phenyl)-5-(2,4-dihydroxy-5-isopropylphenyl)-N-(2,2,2-trifluoroethyl)-4H-1,2,4-triazole-3-carboxamide, trifluoroacetic acid]",100 to 1000 nM,100 to 1000 nM,< 100 nM
"Cc1sc2c(c1C)C(c1ccc(Cl)cc1)=N[C@@H](CC(=O)N1CCC(CN3CCN(Cc4ccc(-n5c(C(N)=O)nnc5-c5ccc(O)cc5O)cc4)CC3)CC1)c1nnc(C)n1-2 [Compound 112, (S)-4-(4-((4-((1-(2-(4-(4-chlorophenyl)-2,3,9-trimethyl-6H-thieno[3,2-f][1,2,4]triazolo[4,3-a][1,4]diazepin-6-yl)acetyl)piperidin-4-yl)methyl)piperazin-1-yl)methyl)phenyl)-5-(2,4-dihydroxyphenyl)-4H-1,2,4-triazole-3-carboxamide, trifluoroacetic acid]",< 100 nM,100 to 1000 nM,< 100 nM
"Cc1sc2c(c1C)C(c1ccc(Cl)cc1)=N[C@@H](CC(=O)NCC1CN(C(=O)C3CCN(Cc4ccc(-n5c(O)nnc5-c5cc(C(C)C)c(O)cc5O)cc4)CC3)C1)c1nnc(C)n1-2 [Compound 59, 2-((6S)-4-(4-chlorophenyl)-2,3,9-trimethyl-6H-thieno[3,2-f][1,2,4]triazolo[4,3-a][1,4]diazepin-6-yl)-N-((1-(1-(4-(3-(2,4-dihydroxy-5-isopropylphenyl)-5-hydroxy-4H-1,2,4-triazol-4-yl)benzyl)piperidine-4-carbonyl)azetidin-3-yl)methyl)acetamide, trifluoroacetic acid]",100 to 1000 nM,100 to 1000 nM,< 100 nM
"Cc1sc2c(c1C)C(c1ccc(Cl)cc1)=N[C@@H](CC(=O)NCC(=O)NCc1ccc(-n3c(O)nnc3-c3cc(C(C)C)c(O)cc3O)cc1)c1nnc(C)n1-2 [Compound 57, 2-((6S)-4-(4-chlorophenyl)-2,3,9-trimethyl-6H-thieno[3,2-f][1,2,4]triazolo[4,3-a][1,4]diazepin-6-yl)-N-(2-((4-(3-(2,4-dihydroxy-5-isopropylphenyl)-5-hydroxy-4H-1,2,4-triazol-4-yl)benzyl)amino)-2-oxoethyl)acetamide]",100 to 1000 nM,100 to 1000 nM,100 to 1000 nM
